Data published in patent US4045298A, “Antibiotic XK-62-2 and process for production thereof” (priority 1972, dated 1977).
In brackets after ≈: the same amount, converted by molar mass.

Columns and labels:
[1] = test system: Streptococcus faecalis ATCC 10541; assay: Antibacterial spectra by agar dilution method; format: cell-based; details: Enterococcus faecalis, ATCC10541, Table 5, read-out: Minimum inhibitory concentration
Description: (§1) Antibacterial spectra of XK-62-2 by agar

[2] = test system: Shigella sonnei ATCC 9290; assay: Antibacterial spectra by agar dilution method; format: cell-based; details: ATCC9290, Table 5, read-out: Minimum inhibitory concentration
Description: as §1

[3] = test system: Staphylococcus aureus KY 8957; assay: Antibacterial spectra by agar dilution method; format: cell-based; details: KY8957, resistant to chloramphenicol, streptomycin, kanendomycin, tetracycline and paromomycin, read-out: Minimum inhibitory concentration
Description: as §1

Escherichia coli KY 8315 = assay: Antibacterial spectra by agar dilution method; format: cell-based; details: KY8315, resistant to streptomycin, kanamycin, paromomycin and neomycin, read-out: Minimum inhibitory concentration
Description: as §1

[4] = test system: Bacillus cereus ATCC 9634; assay: Antibacterial spectra by agar dilution method; format: cell-based; details: ATCC9634, Table 5, read-out: Minimum inhibitory concentration
Description: as §1

[5] = test system: Staphylococcus aureus KY 8953; assay: Antibacterial spectra by agar dilution method; format: cell-based; details: KY8953, resistant to streptomycin, kanamycin, paromomycin, tetracycline, neomycin, kanendomycin and erythromycin, read-out: Minimum inhibitory concentration
Description: as §1

[6] = test system: Staphylococcus aureus ATCC 6538P; assay: Antibacterial spectra by agar dilution method; format: cell-based; details: ATCC6538P, Table 5, read-out: Minimum inhibitory concentration
Description: as §1

Escherichia coli KY 8302 = assay: Antibacterial spectra by agar dilution method; format: cell-based; details: KY8302, resistant to chloramphenicol, streptomycin, kanamycin, paromomycin, tetracycline and spectinomycin, read-out: Minimum inhibitory concentration
Description: as §1

[7] = test system: Salmonella typhosa ATCC 9992; assay: Antibacterial spectra by agar dilution method; format: cell-based; details: Salmonella enterica, read-out: Minimum inhibitory concentration
Description: as §1

[8] = test system: Bacillus subtilis No. 10707; assay: Antibacterial spectra by agar dilution method; format: cell-based; details: Table 5, read-out: Minimum inhibitory concentration
Description: as §1

[9] = test system: Staphylococcus aureus KY 8942; assay: Antibacterial spectra by agar dilution method; format: cell-based; details: KY8942, resistant to kanamycin, paromomycin and streptomycin, read-out: Minimum inhibitory concentration
Description: as §1

Escherichia coli KY 8310 = assay: Antibacterial spectra by agar dilution method; format: cell-based; details: KY8310, resistant to chloramphenicol, streptomycin, kanamycin, gentamicin, kanendomycin, paromomycin, tetracycline and spectinomycin, read-out: Minimum inhibitory concentration
Description: as §1

[10] = test system: Klebsiella pneumoniae ATCC 10031; assay: Antibacterial spectra by agar dilution method; format: cell-based; details: ATCC10031, Table 5, read-out: Minimum inhibitory concentration
Description: as §1

Escherichia coli ATCC 26 = assay: Antibacterial spectra by agar dilution method; format: cell-based; details: ATCC26, Table 5, read-out: Minimum inhibitory concentration
Description: as §1

[11] = test system: Bacillus cereus var. myccides ATCC 9463; assay: Antibacterial spectra by agar dilution method; format: cell-based; details: ATCC9463, Table 5, read-out: Minimum inhibitory concentration
Description: as §1

[12] = test system: Staphylococcus aureus KY 8956; assay: Antibacterial spectra by agar dilution method; format: cell-based; details: KY8956, resistant to streptomycin, paromomycin, tetracycline, erythromycin and oleandomycin, read-out: Minimum inhibitory concentration
Description: as §1

[13] = test system: Pseudomonas aeruginosa BMH No. 1; assay: Antibacterial spectra by agar dilution method; format: cell-based; details: BMHNO.1, Table 5, read-out: Minimum inhibitory concentration
Description: as §1

[14] = test system: Proteus vulgaris Abbott JJ; assay: Minimum inhibitory concentration by agar dilution method; format: cell-based; details: agar dilution, Table 6, read-out: Minimum inhibitory concentration
Description: (§2) The comparative in vitro activities of these antibiotics against various microorganisms of the genus Proteus are shown in the following Table 6.
(§3) Minimum inhibitory concentration
(§4) (γ/ml : by agar dilution method)

Proteus mirabilis No. 39 = assay: as above; format: cell-based; details: NO.39, agar dilution, Table 6, read-out: Minimum inhibitory concentration
Description: as §2, §3, §4

[15] = test system: Proteus mirabilis Finland 9; assay: as above; format: cell-based; details: FINLAND9, agar dilution, Table 6, read-out: Minimum inhibitory concentration
Description: as §2, §3, §4

[16] = test system: Proteus rettgeri Hambrook; assay: as above; format: cell-based; details: Providencia rettgeri; agar dilution; Table 6; read-out: Minimum inhibitory concentration
Description: as §2, §3, §4

[17] = test system: Proteus mirabilis No. 825; assay: as above; format: cell-based; details: NO.825, agar dilution, Table 6, read-out: Minimum inhibitory concentration
Description: as §2, §3, §4

Proteus vulgaris KY 4297 = assay: as above; format: cell-based; details: KY4297, Table 6
Description: as §2, §3, §4

Proteus morganii Jenkins = assay: as above; format: cell-based; details: Morganella morganii; agar dilution; Table 6; read-out: Minimum inhibitory concentration
Description: as §2, §3, §4

Proteus vulgaris KY 4296 = assay: as above; format: cell-based; details: KY4296, Table 6
Description: as §2, §3, §4

Proteus rettgeri Booth = assay: as above; format: cell-based; details: Providencia rettgeri; agar dilution; Table 6; read-out: Minimum inhibitory concentration
Description: as §2, §3, §4

[18] = test system: specific enzyme system which inactivates gentamicin C1a or kanamycin by acetylating; format: biochemical, Pseudomonas aeruginosa
[19] = test system: Pseudomonas aeruginosa BMH No. 1; assay: In vivo protection of mice against bacterial infection; details: subcutaneous, inoculum 3.8×10^8 cells/mouse intraperitoneal
Experimental: In addition, the in vivo activity of XK-62-2 against pathogenic bacterial infections in mice is tested. The mice are infected with an inoculum of 3.8× 10^8 cells/mouse of Pseudomonas aeruginosa BMH No. 1 or 6.6× 10^7 cells/mouse of Pseudomonas aeruginosa KY 8510 by intraperitoneal injection. They are then treated with various doses of the test antibiotic by subcutaneous injection. The effect of XK-62-2 on the protection of the bacterial infections is shown in the following Table 8 wherein ten mice are used in each test.

[20] = test system: Pseudomonas aeruginosa KY 8510; assay: as above; details: subcutaneous, inoculum 6.6×10^7 cells/mouse intraperitoneal
Experimental: In addition, the in vivo activity of XK-62-2 against pathogenic bacterial infections in mice is tested. […] They are then treated with various doses of the test antibiotic by subcutaneous injection.

## CNC[C@@H]1CC[C@@H](N)[C@@H](O[C@H]2[C@H](O)[C@@H](O[C@H]3OC[C@](C)(O)[C@H](NC)[C@H]3O)[C@H](N)C[C@@H]2N)O1 [XK-62-2]
[1]
  MIC: 1.05 µg/mL (≈ 2.27 µM)
[2]
  MIC: 0.07 µg/mL (≈ 0.151 µM)
[3]
  MIC: 0.0021 µg/mL (≈ 0.00453 µM)
Escherichia coli KY 8315
  MIC: 0.016 µg/mL (≈ 0.0345 µM)
[4]
  MIC: 0.016 µg/mL (≈ 0.0345 µM)
[5]
  MIC: 0.0041 µg/mL (≈ 0.00884 µM)
[6]
  MIC: < 0.0041 µg/mL
Escherichia coli KY 8302
  MIC: 0.033 µg/mL (≈ 0.0712 µM)
[7]
  MIC: 0.018 µg/mL (≈ 0.0388 µM)
[8]
  MIC: < 0.004 µg/mL
[9]
  MIC: 0.065 µg/mL (≈ 0.14 µM)
Escherichia coli KY 8310
  MIC: 1.05 µg/mL (≈ 2.27 µM)
[10]
  MIC: 0.0082 µg/mL (≈ 0.0177 µM)
Escherichia coli ATCC 26
  MIC: 0.0082 µg/mL (≈ 0.0177 µM)
[11]
  MIC: 0.0082 µg/mL (≈ 0.0177 µM)
[12]
  MIC: < 0.001 µg/mL
[13]
  MIC: 0.53 µg/mL (≈ 1.14 µM)
[14]
  MIC: 0.021 µg/mL (≈ 0.0453 µM)
Proteus mirabilis No. 39
  MIC: 0.021 µg/mL (≈ 0.0453 µM)
[15]
  MIC: 0.04 µg/mL (≈ 0.0863 µM)
[16]
  MIC: 0.021 µg/mL (≈ 0.0453 µM)
[17]
  MIC: 0.021 µg/mL (≈ 0.0453 µM)
Proteus vulgaris KY 4297
  MIC: 0.021 µg/mL (≈ 0.0453 µM)
Proteus morganii Jenkins
  MIC: 0.04 µg/mL (≈ 0.0863 µM)
Proteus vulgaris KY 4296
  MIC: 0.021 µg/mL (≈ 0.0453 µM)
Proteus rettgeri Booth
  MIC: 0.021 µg/mL (≈ 0.0453 µM)
[18]
  Inactivation by acetylation (6'-NH2): free from acetylation
[19]; 0.125 mg/mouse
  Survival of mice: 0%
[19]; 0.25 mg/mouse
  Survival of mice: 10%
[19]; 0.5 mg/mouse
  Survival of mice: 50%
[19]; 1 mg/mouse
  Survival of mice: 90%
[19]; 2 mg/mouse
  Survival of mice: 100%
[20]; 0.125 mg/mouse
  Survival of mice: 0%
[20]; 0.25 mg/mouse
  Survival of mice: 30%
[20]; 0.5 mg/mouse
  Survival of mice: 50%
[20]; 1 mg/mouse
  Survival of mice: 80%
[20]; 2 mg/mouse
  Survival of mice: 100%
